Laboratory results: patent US12220440B2, “Drug composition, method for treating infection, disinfecting composition, and drug adjuvant” (priority 2022, dated 2025)
Values after ≈ are worked out from the molar mass of the structure shown. Read-outs that look alike come from different tables or passages of the source. Peptide text beside a SMILES is read from it.

System: E. coli (colistin-resistant)
Assay: MIC, colistin-resistant E. coli clinical isolates, with and without otilonium bromide
Type: cell-based
Conditions: Escherichia coli

Compound: CCC(C)CCCC(=O)N[C@@H](CCN)C(=O)N[C@H](C(=O)N[C@@H](CCN)C(=O)N[C@H]1CCNC(=O)[C@H]([C@@H](C)O)NC(=O)[C@H](CCN)NC(=O)[C@H](CCN)NC(=O)[C@H](CC(C)C)NC(=O)[C@@H](CC(C)C)NC(=O)[C@H](CCN)NC1=O)[C@@H](C)O (stereo partly drawn) [Colistin] (HELM PEPTIDE1{[CCC(C)CCCC(=O)[*:2]].[Dab].T.[Dab].[Dab].[Dab].[dL].L.[Dab].[Dab].T}$PEPTIDE1,PEPTIDE1,5:R3-11:R2$$$V2.0)
- MIC (E. coli 5, colistin-resistant, colistin alone, read-out: Colistin MIC, Colistin): 8 µg/mL (≈ 6.92 µM)
- MIC (E. coli 5, colistin-resistant, in the presence of 10 ug/ml Ob, read-out: Colistin MIC, Colistin + 10 ug/ml Ob): 4 µg/mL
- MIC (E. coli 5, colistin-resistant, in the presence of 20 ug/ml Ob, read-out: Colistin MIC, Colistin + 20 ug/ml Ob): ≤ 0.25 µg/mL
- MIC (E. coli 12.12.0487, colistin-resistant, colistin alone, read-out: Colistin MIC, Colistin): 8 µg/mL (≈ 6.92 µM)
- MIC (E. coli 12.12.0487, colistin-resistant, in the presence of 10 ug/ml Ob, read-out: Colistin MIC, Colistin + 10 ug/ml Ob): 2 µg/mL
- MIC (E. coli 12.12.0487, colistin-resistant, in the presence of 20 ug/ml Ob, read-out: Colistin MIC, Colistin + 20 ug/ml Ob): 0.5 µg/mL
- MIC (E. coli 101, colistin-resistant, colistin alone, read-out: Colistin MIC, Colistin): 8 µg/mL (≈ 6.92 µM)
- MIC (E. coli 101, colistin-resistant, in the presence of 10 ug/ml Ob, read-out: Colistin MIC, Colistin + 10 ug/ml Ob): 4 µg/mL
- MIC (E. coli 101, colistin-resistant, in the presence of 20 ug/ml Ob, read-out: Colistin MIC, Colistin + 20 ug/ml Ob): 1 µg/mL
- MIC (E. coli 119, colistin-resistant, colistin alone, read-out: Colistin MIC, Colistin): 16 µg/mL (≈ 13.8 µM)
- MIC (E. coli 119, colistin-resistant, in the presence of 10 ug/ml Ob, read-out: Colistin MIC, Colistin + 10 ug/ml Ob): 4 µg/mL
- MIC (E. coli 119, colistin-resistant, in the presence of 20 ug/ml Ob, read-out: Colistin MIC, Colistin + 20 ug/ml Ob): 2 µg/mL
- MIC (E. coli 812, colistin-resistant, colistin alone, read-out: Colistin MIC, Colistin): 16 µg/mL (≈ 13.8 µM)
- MIC (E. coli 812, colistin-resistant, in the presence of 10 ug/ml Ob, read-out: Colistin MIC, Colistin + 10 ug/ml Ob): 4 µg/mL
- MIC (E. coli 812, colistin-resistant, in the presence of 20 ug/ml Ob, read-out: Colistin MIC, Colistin + 20 ug/ml Ob): 1 µg/mL
- MIC (E. coli 2016.2.5 1149-1, colistin-resistant, colistin alone, read-out: Colistin MIC, Colistin): 8 µg/mL (≈ 6.92 µM)
- MIC (E. coli 2016.2.5 1149-1, colistin-resistant, in the presence of 10 ug/ml Ob, read-out: Colistin MIC, Colistin + 10 ug/ml Ob): 4 µg/mL
- MIC (E. coli 2016.2.5 1149-1, colistin-resistant, in the presence of 20 ug/ml Ob, read-out: Colistin MIC, Colistin + 20 ug/ml Ob): 1 µg/mL
- MIC (E. coli 34650, colistin-resistant, colistin alone, read-out: Colistin MIC, Colistin): 8 µg/mL (≈ 6.92 µM)
- MIC (E. coli 34650, colistin-resistant, in the presence of 10 ug/ml Ob, read-out: Colistin MIC, Colistin + 10 ug/ml Ob): 2 µg/mL
- MIC (E. coli 34650, colistin-resistant, in the presence of 20 ug/ml Ob, read-out: Colistin MIC, Colistin + 20 ug/ml Ob): 0.5 µg/mL
- MIC (E. coli CX48, colistin-resistant, colistin alone, read-out: Colistin MIC, Colistin): 8 µg/mL (≈ 6.92 µM)
- MIC (E. coli CX48, colistin-resistant, in the presence of 10 ug/ml Ob, read-out: Colistin MIC, Colistin + 10 ug/ml Ob): 4 µg/mL
- MIC (E. coli CX48, colistin-resistant, in the presence of 20 ug/ml Ob, read-out: Colistin MIC, Colistin + 20 ug/ml Ob): 1 µg/mL
- MIC (E. coli CX53, colistin-resistant, colistin alone, read-out: Colistin MIC, Colistin): 8 µg/mL (≈ 6.92 µM)
- MIC (E. coli CX53, colistin-resistant, in the presence of 10 ug/ml Ob, read-out: Colistin MIC, Colistin + 10 ug/ml Ob): 4 µg/mL
- MIC (E. coli CX53, colistin-resistant, in the presence of 20 ug/ml Ob, read-out: Colistin MIC, Colistin + 20 ug/ml Ob): 2 µg/mL
- MIC (E. coli CX116, colistin-resistant, colistin alone, read-out: Colistin MIC, Colistin): 2 µg/mL (≈ 1.73 µM)
- MIC (E. coli CX116, colistin-resistant, in the presence of 10 ug/ml Ob, read-out: Colistin MIC, Colistin + 10 ug/ml Ob): ≤ 0.25 µg/mL
- MIC (E. coli CX116, colistin-resistant, in the presence of 20 ug/ml Ob, read-out: Colistin MIC, Colistin + 20 ug/ml Ob): ≤ 0.25 µg/mL
- MIC (E. coli WZ2431, colistin-resistant, colistin alone, read-out: Colistin MIC, Colistin): 8 µg/mL (≈ 6.92 µM)
- MIC (E. coli WZ2431, colistin-resistant, in the presence of 10 ug/ml Ob, read-out: Colistin MIC, Colistin + 10 ug/ml Ob): 2 µg/mL
- MIC (E. coli WZ2431, colistin-resistant, in the presence of 20 ug/ml Ob, read-out: Colistin MIC, Colistin + 20 ug/ml Ob): 0.5 µg/mL
- MIC (E. coli WZ2909, colistin-resistant, colistin alone, read-out: Colistin MIC, Colistin): 16 µg/mL (≈ 13.8 µM)
- MIC (E. coli WZ2909, colistin-resistant, in the presence of 10 ug/ml Ob, read-out: Colistin MIC, Colistin + 10 ug/ml Ob): 8 µg/mL
- MIC (E. coli WZ2909, colistin-resistant, in the presence of 20 ug/ml Ob, read-out: Colistin MIC, Colistin + 20 ug/ml Ob): 1 µg/mL
- MIC (E. coli WZ3903, colistin-resistant, colistin alone, read-out: Colistin MIC, Colistin): 4 µg/mL (≈ 3.46 µM)
- MIC (E. coli WZ3903, colistin-resistant, in the presence of 10 ug/ml Ob, read-out: Colistin MIC, Colistin + 10 ug/ml Ob): ≤ 0.25 µg/mL
- MIC (E. coli WZ3903, colistin-resistant, in the presence of 20 ug/ml Ob, read-out: Colistin MIC, Colistin + 20 ug/ml Ob): ≤ 0.25 µg/mL
- MIC (E. coli WZ3906, colistin-resistant, colistin alone, read-out: Colistin MIC, Colistin): 8 µg/mL (≈ 6.92 µM)
- MIC (E. coli WZ3906, colistin-resistant, in the presence of 10 ug/ml Ob, read-out: Colistin MIC, Colistin + 10 ug/ml Ob): 4 µg/mL
- MIC (E. coli WZ3906, colistin-resistant, in the presence of 20 ug/ml Ob, read-out: Colistin MIC, Colistin + 20 ug/ml Ob): 1 µg/mL
